{"source": "patent US11918659B2", "about": "“Materials and methods for inducing therapeutic hypothermia in a mammalian subject” (priority 2018, dated 2024)", "tested_on": "TRPV1-overexpressed HEK293 cells", "conditions": "FIGS. 1F-1K, tested concentrations 0-5 μM"}
{"smiles": "CC(C)(C)c1cc2c(O)c(c1)Cc1cc(C(C)(C)C)cc(c1O)Cc1cc(C(C)(C)C)cc(c1O)Cc1cc(C(C)(C)C)cc(c1O)C2", "note": "[4-tert-Butylcalix[4]arene]", "values": [{"measurement": "toxicity on the cells of the calixarene derivative in the formulation", "result": "did not cause any toxicity"}]}
